According to US10738028B2, “Spiro three-membered ring, spiro five-membered ring peptide deformylase inhibitor and use thereof in antibacteria and anti-tumor” (priority 2016, dated 2020):
Read-outs that look alike come from different tables or passages of the source.

How the values were obtained:
Type in all cases: cell-based
[1] = system: A549 lung cancer cell line; assay: CCK-8 proliferation inhibition; settings: Homo sapiens, A549, 72 h, concentration of 30 μM
In short: (§1)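 Plating at 2000 cells/well, then incubation overnight at 37° C. Next, a range of compound concentrations for 72 hours (control 1‰ DMSO). Finally, medium decanted and CCK-8 diluted 1:10 added.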

[2] = system: MGC-803 gastric cancer cell line; assay: CCK-8 proliferation inhibition; settings: Homo sapiens, MGC-803, 72 h, concentration of 30 μM
In short: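 Using media specific to each line (1640 for MGC-803 and Jurkat, F12 for PC3, DMEM high glucose for MCF-7, each with 10% newborn bovine serum), cells at 2000/well were treated for 72 h with serially formulated compounds, then assessed with CCK-8 diluted 1:10.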

[3] = system: BEL-7402 liver cancer cell line; assay: CCK-8 proliferation inhibition; settings: Homo sapiens, Bel-7402, 72 h, concentration of 30 μM
In short: as §1

[4] = system: Enterococcus faecium (EFM); assay: MIC, two-fold agar dilution (CLSI), clinical isolates
In short: (§2)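 Susceptibility was tested using CLSI two-fold agar dilution against the strains examined.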

[5] = system: methicillin-resistant Staphylococcus aureus (MRSA); assay: as above
In short: as §2

[6] = system: Moraxella catarrhalis (BCA); assay: as above
In short: as §2

[7] = system: Streptococcus pneoumoniae (SPN); assay: as above
In short: as §2

[8] = system: methicillin-sensitive Staphylococcus epidermidis (MSSE); assay: as above
In short: as §2

[9] = system: Escherichia coli (including ESBLs, non-ESBLs); assay: as above
In short: as §2

[10] = system: Enterococcus faecalis (EFA); assay: as above
In short: as §2

[11] = system: methicillin-resistant Staphylococcus epidermidis (MRSE); assay: as above
In short: as §2

[12] = system: methicillin-sensitive Staphylococcus aureus (MSSA); assay: as above
In short: as §2

[13] = system: HCT-116 colorectal cancer cell line; assay: CCK-8 proliferation inhibition; settings: Homo sapiens, HCT-116, 72 h, concentration of 30 μM, 72 hours, CCK-8
In short: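 Proliferation over 72 hours of compound treatment was measured with CCK-8 against a 1‰ DMSO control.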

## O=C(C[C@@H](CC1CCCC1)C(=O)N1CC2(CC2)C[C@H]1C(=O)Nc1ccc(N2CCOCC2)cc1)NO [Example 61]
[1]
  inhibition at 30 µM: 10%
[2]
  inhibition at 30 µM: 31%
[3]
  inhibition at 30 µM: 50%
[4]; clinical isolate EFM 15-1
  Anti-bacterial activity (MIC), strain EFM 15-1: > 32 µg/mL
[4]; clinical isolate EFM 15-2
  Anti-bacterial activity (MIC), strain EFM 15-2: > 32 µg/mL
[4]; clinical isolate EFM 15-3
  Anti-bacterial activity (MIC), strain EFM 15-3: > 32 µg/mL
[4]; clinical isolate EFM 15-4
  Anti-bacterial activity (MIC), strain EFM 15-4: > 32 µg/mL
[4]; clinical isolate EFM 15-6
  Anti-bacterial activity (MIC), strain EFM 15-6: 1 µg/mL
[5]; clinical isolate MRSA 15-1
  Anti-bacterial activity (MIC), strain MRSA 15-1: 1 µg/mL
[5]; clinical isolate MRSA 15-2
  Anti-bacterial activity (MIC), strain MRSA 15-2: 1 µg/mL
[5]; clinical isolate MRSA 15-3
  Anti-bacterial activity (MIC), strain MRSA 15-3: 1 µg/mL
[5]; clinical isolate MRSA 15-4
  Anti-bacterial activity (MIC), strain MRSA 15-4: 1 µg/mL
[6]; clinical isolate BCA 14-1
  Anti-bacterial activity (MIC), strain BCA 14-1: 8 µg/mL
[6]; clinical isolate BCA 14-4
  Anti-bacterial activity (MIC), strain BCA 14-4: 8 µg/mL
[6]; clinical isolate BCA 14-5
  Anti-bacterial activity (MIC), strain BCA 14-5: 1 µg/mL
[6]; clinical isolate BCA 14-6
  Anti-bacterial activity (MIC), strain BCA 14-6: 1 µg/mL
[6]; clinical isolate BCA 14-7
  Anti-bacterial activity (MIC), strain BCA 14-7: 8 µg/mL
[6]; clinical isolate BCA 14-8
  Anti-bacterial activity (MIC), strain BCA 14-8: 8 µg/mL
[6]; clinical isolate BCA 14-10
  Anti-bacterial activity (MIC), strain BCA 14-10: 8 µg/mL
[7]; clinical isolate SPN 16-2
  Anti-bacterial activity (MIC), strain SPN 16-2: 2 µg/mL
[7]; clinical isolate SPN 16-4
  Anti-bacterial activity (MIC), strain SPN 16-4: 2 µg/mL
[8]; clinical isolate MSSE 15-3
  Anti-bacterial activity (MIC), strain MSSE 15-3: 1 µg/mL
[8]; clinical isolate MSSE 15-4
  Anti-bacterial activity (MIC), strain MSSE 15-4: 1 µg/mL
[8]; clinical isolate MSSE 15-5
  Anti-bacterial activity (MIC), strain MSSE 15-5: 1 µg/mL
[8]; clinical isolate MSSE 15-6
  Anti-bacterial activity (MIC), strain MSSE 15-6: 32 µg/mL
[9]; clinical isolate ECO+ 15-1
  Anti-bacterial activity (MIC), strain ECO+ 15-1: > 32 µg/mL
[9]; clinical isolate ECO+ 15-2
  Anti-bacterial activity (MIC), strain ECO+ 15-2: > 32 µg/mL
[9]; clinical isolate ECO+ 15-3
  Anti-bacterial activity (MIC), strain ECO+ 15-3: 1 µg/mL
[9]; clinical isolate ECO+ 15-4
  Anti-bacterial activity (MIC), strain ECO+ 15-4: 1 µg/mL
[9]; clinical isolate ECO− 15-1
  Anti-bacterial activity (MIC), strain ECO− 15-1: > 32 µg/mL
[9]; clinical isolate ECO− 15-2
  Anti-bacterial activity (MIC), strain ECO− 15-2: > 32 µg/mL
[9]; clinical isolate ECO− 15-3
  Anti-bacterial activity (MIC), strain ECO− 15-3: > 32 µg/mL
[9]; clinical isolate ECO− 15-4
  Anti-bacterial activity (MIC), strain ECO− 15-4: > 32 µg/mL
[10]; clinical isolate EFA 15-1
  Anti-bacterial activity (MIC), strain EFA 15-1: > 32 µg/mL
[10]; clinical isolate EFA 15-2
  Anti-bacterial activity (MIC), strain EFA 15-2: > 32 µg/mL
[10]; clinical isolate EFA 15-3
  Anti-bacterial activity (MIC), strain EFA 15-3: > 32 µg/mL
[10]; clinical isolate EFA 15-4
  Anti-bacterial activity (MIC), strain EFA 15-4: > 32 µg/mL
[10]; clinical isolate EFA 15-5
  Anti-bacterial activity (MIC), strain EFA 15-5: > 32 µg/mL
[10]; clinical isolate EFA 15-6
  Anti-bacterial activity (MIC), strain EFA 15-6: > 32 µg/mL
[10]; clinical isolate EFA 15-9
  Anti-bacterial activity (MIC), strain EFA 15-9: 8 µg/mL
[11]; clinical isolate MRSE 15-1
  Anti-bacterial activity (MIC), strain MRSE 15-1: 1 µg/mL
[11]; clinical isolate MRSE 15-2
  Anti-bacterial activity (MIC), strain MRSE 15-2: 1 µg/mL
[11]; clinical isolate MRSE 15-3
  Anti-bacterial activity (MIC), strain MRSE 15-3: 1 µg/mL
[11]; clinical isolate MRSE 15-7
  Anti-bacterial activity (MIC), strain MRSE 15-7: 1 µg/mL
[12]; clinical isolate MSSA 15-3
  Anti-bacterial activity (MIC), strain MSSA 15-3: 1 µg/mL
[12]; clinical isolate MSSA 15-4
  Anti-bacterial activity (MIC), strain MSSA 15-4: 1 µg/mL
[12]; clinical isolate MSSA 15-5
  Anti-bacterial activity (MIC), strain MSSA 15-5: > 32 µg/mL
[12]; clinical isolate MSSA 15-6
  Anti-bacterial activity (MIC), strain MSSA 15-6: 1 µg/mL
[13]; Table 5, read-out: Inhibition of proliferation, Colorectal cancer HCT116
  inhibition at 30 µM: ≥ 30%
[13]; read-out: HCT116 inhibition rate/%
  inhibition at 30 µM: 35%
